In paper PMC12655637, “Design, Synthesis, and Mechanistic Study of Novel Ciprofloxacin/Thiazole Chalcone Hybrids as Potential Anticancer Agents” (Pharmaceuticals, 2025):
Like-named read-outs stand apart in the source and are kept apart here.

Key:
Experiment in all cases: NCI-60 screening, one-dose (10 µM) and five-dose, SRB
SK-MEL-5 = assay type: cell-based, human; conditions: Homo sapiens; 10 μM; SK-MEL-5, Melanoma; read-out: Growth percentage
K-562 = assay type: cell-based, human; conditions: Homo sapiens, K562, 10 μM; K-562, Leukemia; read-out: Growth percentage
NCI/ADR-RES = assay type: cell-based, human; conditions: Homo sapiens, 10 μM, Ovarian Cancer, read-out: Growth percentage
PC-3 = assay type: cell-based, human; conditions: Homo sapiens; 10 μM; PC-3, Prostate Cancer; read-out: Growth percentage
DU-145 = assay type: cell-based, human; conditions: Homo sapiens; 10 μM; DU-145, Prostate Cancer; read-out: Growth percentage
HL-60(TB) = assay type: cell-based, human; conditions: Homo sapiens, HL-60, 10 μM; HL-60(TB), Leukemia; read-out: Growth percentage
SF-295 = assay type: cell-based, human; conditions: Homo sapiens; 10 μM; SF-295, CNS Cancer; read-out: Growth percentage
RPMI-8226 = assay type: cell-based, human; conditions: Homo sapiens, RPMI-8226, 10 μM; RPMI-8226, Leukemia; read-out: Growth percentage
OVCAR-5 = assay type: cell-based, human; conditions: 10 μM; OVCAR-5, Ovarian Cancer
HS 578T = assay type: cell-based, human; conditions: Homo sapiens, 10 μM, Breast Cancer, read-out: Growth percentage
SNB-75 = assay type: cell-based, human; conditions: Homo sapiens; 10 μM; SNB-75, CNS Cancer; read-out: Growth percentage
UACC-257 = assay type: cell-based, human; conditions: Homo sapiens; 10 μM; UACC-257, Melanoma; read-out: Growth percentage
HOP-62 = assay type: cell-based, human; conditions: Homo sapiens, HOP-62, 10 μM; HOP-62, Non-Small-Cell Lung Cancer; read-out: Growth percentage
786−0 = assay type: cell-based, human; conditions: Homo sapiens; 10 μM; 786−0, Renal Cancer; read-out: Growth percentage
LOX IMVI = assay type: cell-based, human; conditions: Homo sapiens, 10 μM, Melanoma, read-out: Growth percentage
A498 = assay type: cell-based; conditions: Homo sapiens
HCT-15 = assay type: cell-based, human; conditions: Homo sapiens; 10 μM; HCT-15, Colon Cancer; read-out: Growth percentage
MCF7 = assay type: cell-based, human; conditions: Homo sapiens, MCF7, 10 μM; MCF7, Breast Cancer; read-out: Growth percentage
KM12 = assay type: cell-based, human; conditions: Homo sapiens, KM12, 10 μM; KM12, Colon Cancer; read-out: Growth percentage
SW-620 = assay type: cell-based, human; conditions: Homo sapiens; 10 μM; SW-620, Colon Cancer; read-out: Growth percentage
HCC-2998 = assay type: cell-based, human; conditions: Homo sapiens; 10 μM; HCC-2998, Colon Cancer; read-out: Growth percentage
SNB-19 = assay type: cell-based; conditions: Homo sapiens
MDA-MB231/ATCC = assay type: cell-based; conditions: 10 μM; MDA-MB231/ATCC, Breast Cancer
HCT-116 = assay type: cell-based, human; conditions: Homo sapiens; for activity at 10 µM: HCT-116, 10 μM, HCT-116, Colon Cancer, read-out: Growth percentage
SN12C = assay type: cell-based, human; conditions: Homo sapiens, 10 μM, Renal Cancer, read-out: Growth percentage
M14 = assay type: cell-based, human; conditions: Homo sapiens; 10 μM; M14, Melanoma; read-out: Growth percentage
HT29 = assay type: cell-based, human; conditions: Homo sapiens, HT-29; 10 μM; HT29, Colon Cancer; read-out: Growth percentage
[1] = A498, 10 μM, A498, Renal Cancer, read-out: Growth percentage
[2] = 10 μM, SNB-19, CNS Cancer, read-out: Growth percentage

Row | SMILES | activity at 10 µM (SK-MEL-5) | activity at 10 µM (K-562) | activity at 10 µM (NCI/ADR-RES) | activity at 10 µM (PC-3) | activity at 10 µM (DU-145) | activity at 10 µM (HL-60(TB)) | activity at 10 µM (SF-295) | activity at 10 µM (RPMI-8226) | Growth percentage (OVCAR-5) | activity at 10 µM (HS 578T) | activity at 10 µM (SNB-75) | activity at 10 µM (UACC-257) | activity at 10 µM (HOP-62) | activity at 10 µM (786−0) | activity at 10 µM (LOX IMVI) | activity at 10 µM (HCT-15) | activity at 10 µM (MCF7) | activity at 10 µM (KM12) | activity at 10 µM (SW-620) | activity at 10 µM (HCC-2998) | further results
1 | Cc1nc(SCC(=O)N2CCN(c3cc4c(cc3F)c(=O)c(C(=O)O)cn4C3CC3)CC2)sc1C(=O)/C=C/c1ccc(Cl)cc1 [Compound 4c, (E)-7-(4-(2-((5-(3-(4-Chlorophenyl)acryloyl)-4-methylthiazol-2-yl)thio)acetyl)piperazin-1-yl)-1-cyclopropyl-6-fluoro-4-oxo-1,4-dihydroquinoline-3-carboxylic Acid] | 100% | 93.1% | 98.9% | 100% | 178% | 92.9% | 102% | 7.7% | 100.3% | 105% | 95.6% | 117% | 122% | 96.2% | 80.9% | 102% | 52.9% | 104% | 113% | 104% | activity at 10 µM (A498; [1]): 119%; activity at 10 µM (SNB-19; SNB-19, read-out: Growth percentage): 100%; Growth percentage (MDA-MB231/ATCC): 100.1%; activity at 10 µM (HCT-116): 61%; IC50 (HCT-116; colon HCT-116): 340 nM; activity at 10 µM (SN12C): 96.7%; activity at 10 µM (M14): 98.7%; activity at 10 µM (HT29): 108%
2 | Cc1nc(SCC(=O)N2CCN(c3cc4c(cc3F)c(=O)c(C(=O)O)cn4C3CC3)CC2)sc1C(=O)/C=C/c1ccc(F)cc1 [Compound 4e, (E)-1-Cyclopropyl-6-fluoro-7-(4-(2-((5-(3-(4-fluorophenyl)acryloyl)-4-methylthiazol-2-yl)thio)acetyl)piperazin-1-yl)-4-oxo-1,4-dihydroquinoline-3-carboxylic Acid] | 99.9% | 98.2% | 104% | 96.6% | 105% | 107% | 98.8% | 29.1% | 119.2% | 105% | 103% | 106% | 108% | 88.3% | 91.2% | 96.8% | 70.6% | 97.3% | 126% | 107% | activity at 10 µM (A498; A498, read-out: Growth percentage): 106%; activity at 10 µM (SNB-19; [2]): 101%; Growth percentage (MDA-MB231/ATCC): 101.1%; activity at 10 µM (HCT-116): 51.2%; activity at 10 µM (SN12C): 99.5%; activity at 10 µM (M14): 97.8%; activity at 10 µM (HT29): 115%
3 | Cc1nc(SCC(=O)N2CCN(c3cc4c(cc3F)c(=O)c(C(=O)O)cn4C3CC3)CC2)sc1C(=O)/C=C/c1ccc(Br)cc1 [Compound 4f, (E)-7-(4-(2-((5-(3-(4-Bromophenyl)acryloyl)-4-methylthiazol-2-yl)thio)acetyl)piperazin-1-yl)-1-cyclopropyl-6-fluoro-4-oxo-1,4-dihydroquinoline-3-carboxylic Acid] | 101% | 96.2% | 107% | 102% | 113% | 83.3% | 108% | 31.5% | 110.6% | 99.6% | 65.7% | 118% | 94.3% | 93.6% | 90.5% | 106% | 70.8% | 108% | 116% | 115% | activity at 10 µM (A498; [1]): 114%; activity at 10 µM (SNB-19; [2]): 93.8%; Growth percentage (MDA-MB231/ATCC): 98.6%; activity at 10 µM (HCT-116): 94.3%; activity at 10 µM (SN12C): 101%; activity at 10 µM (M14): 108%; activity at 10 µM (HT29): 117%
4 | Cc1nc(SCC(=O)N2CCN(c3cc4c(cc3F)c(=O)c(C(=O)O)cn4C3CC3)CC2)sc1C(=O)/C=C/c1cccc([N+](=O)[O-])c1 [Compound 4g, (E)-1-Cyclopropyl-6-fluoro-7-(4-(2-((4-methyl-5-(3-(3-nitrophenyl)acryloyl)thiazol-2-yl)thio)acetyl)piperazin-1-yl)-4-oxo-1,4-dihydroquinoline-3-carboxylic Acid] | 81.7% | 29.3% | 102% | 112% | 108% | 80.5% | 110% | 9.9% | 119.9% | 99.1% | 95.7% | 99.8% | 94.5% | 71.2% | 34.2% | 71.7% | 11.6% | 21.7% | 69.8% | 50.3% | activity at 10 µM (A498; [1]): 129%; activity at 10 µM (SNB-19; [2]): 87.7%; Growth percentage (MDA-MB231/ATCC): 92.4%; activity at 10 µM (HCT-116): -73.5%; activity at 10 µM (SN12C): 65.4%; activity at 10 µM (M14): 83.3%; activity at 10 µM (HT29): 37.2%
5 | Cc1nc(SCC(=O)N2CCN(c3cc4c(cc3F)c(=O)c(C(=O)O)cn4C3CC3)CC2)sc1C(=O)/C=C/c1ccc([N+](=O)[O-])cc1 [Compound 4h, (E)-1-Cyclopropyl-6-fluoro-7-(4-(2-((4-methyl-5-(3-(4-nitrophenyl)acryloyl)thiazol-2-yl)thio)acetyl)piperazin-1-yl)-4-oxo-1,4-dihydroquinoline-3-carboxylic Acid] | 83.5% | 28.9% | 88.8% | 85.9% | 85.3% | 80.9% | 116% | 16.3% | 121.1% | 99.6% | 91.2% | 82.6% | 88.3% | 87.6% | 28.3% | 62.3% | 7.2% | 54.4% | 78.2% | 71.9% | activity at 10 µM (A498; [1]): 125%; activity at 10 µM (SNB-19; [2]): 72.2%; Growth percentage (MDA-MB231/ATCC): 94.5%; activity at 10 µM (HCT-116): 33.8%; activity at 10 µM (SN12C): 78.3%; activity at 10 µM (M14): 70.5%; activity at 10 µM (HT29): 76.1%
